According to patent publication US20240376091A1, “THIADIAZOLEAMIDE DERIVATIVES AND THEIR APPLICATIONS” (ZHEJIANG UNIVERSITY, priority 2021, published 2024):

Target: T1, AR (Homo sapiens, UniProt P10275, T878A)
T1 construct: into the androgen-dependent PCa cells (LNCaP); endogenous in cells; host or cells: LNCaP-ARR2PB-eGFP
T1 sequence (P10275 1-920 T878A): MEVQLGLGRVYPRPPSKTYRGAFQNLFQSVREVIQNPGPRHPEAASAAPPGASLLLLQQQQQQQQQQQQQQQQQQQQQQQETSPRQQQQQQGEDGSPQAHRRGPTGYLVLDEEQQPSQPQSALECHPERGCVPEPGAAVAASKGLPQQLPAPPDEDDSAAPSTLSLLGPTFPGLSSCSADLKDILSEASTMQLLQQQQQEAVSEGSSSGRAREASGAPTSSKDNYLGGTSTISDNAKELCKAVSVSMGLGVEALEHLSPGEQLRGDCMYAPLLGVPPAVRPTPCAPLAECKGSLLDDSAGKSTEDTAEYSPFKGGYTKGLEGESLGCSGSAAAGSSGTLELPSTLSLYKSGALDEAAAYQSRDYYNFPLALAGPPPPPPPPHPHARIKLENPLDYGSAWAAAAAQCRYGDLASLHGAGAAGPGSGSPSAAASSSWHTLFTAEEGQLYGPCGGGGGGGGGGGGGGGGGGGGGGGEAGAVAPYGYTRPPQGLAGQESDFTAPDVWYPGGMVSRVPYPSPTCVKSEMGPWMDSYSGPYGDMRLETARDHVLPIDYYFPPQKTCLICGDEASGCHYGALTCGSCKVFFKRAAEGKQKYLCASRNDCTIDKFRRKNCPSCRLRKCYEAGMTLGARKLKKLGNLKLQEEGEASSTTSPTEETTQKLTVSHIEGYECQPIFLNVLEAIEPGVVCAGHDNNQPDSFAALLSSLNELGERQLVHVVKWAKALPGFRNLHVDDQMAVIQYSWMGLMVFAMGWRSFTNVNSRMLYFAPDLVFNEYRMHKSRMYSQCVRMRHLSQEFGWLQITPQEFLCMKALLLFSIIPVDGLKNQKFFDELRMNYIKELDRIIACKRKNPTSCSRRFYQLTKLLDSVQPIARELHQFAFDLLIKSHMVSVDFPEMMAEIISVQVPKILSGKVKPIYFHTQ
Assay: AR transcriptional activity, LNCaP-ARR2PB-eGFP reporter cells
Format: cell-based
Details: read-out: IC50 AR transcriptional activities
Description: Detection principles: We conducted a stable transfection of promoter ARR2PB known for its strong AR responsiveness, into the androgen-dependent PCa cells (LNCaP). The expression of enhanced green fluorescent protein (eGFP) is depending on the degree of activation of AR. Therefore, LNCaP-ARR2PB-eGFP cell line could quantitatively determine the AR antagonistic activities of the compounds by evaluating the expression of eGFP.

| IC50 | Structure (SMILES) |
| --- | --- |
| 28100 nM | CC(=O)Cc1nsc(NC(=O)c2cc(-c3cccc(C(F)(F)F)c3)c(C)o2)n1 [Compound F-1, 5-Methyl-N-(3-(2-oxopropyl)-1,2,4-thiadiazol-5-yl)-4-(3-(trifluoromethyl)phenyl)furan-2-carboxamide] |
| 34300 nM | CC(=O)Cc1nsc(NC(=O)c2cc(-c3cccc(C#N)c3)c(C)o2)n1 [Compound F-2, 4-(3-Cyanophenyl)-5-methyl-N-(3-(2-oxopropyl)-1,2,4-thiadiazol-5-yl)furan-2-carboxamide] |
| 22400 nM | COc1cccc(-c2cc(C(=O)Nc3nc(CC(C)=O)ns3)oc2C)c1 [Compound F-3, 4-(3-Methoxyphenyl)-5-methyl-N-(3-(2-oxopropyl)-1,2,4-thiadiazol-5-yl)furan-2-carboxamide] |
| 35700 nM | CC(=O)Cc1nsc(NC(=O)c2cc(-c3cccc(OC(F)(F)F)c3)c(C)o2)n1 [Compound F-4, 5-Methyl-N-(3-(2-oxopropyl)-1,2,4-thiadiazol-5-yl)-4-(3-(trifluoromethoxy)phenyl)furan-2-carboxamide] |
| 12600 nM | CC(=O)Cc1nsc(NC(=O)c2cc(-c3cccc(OC(F)F)c3)c(C)o2)n1 [Compound F-5, 4-(3-(Difluoromethoxy)phenyl)-5-methyl-N-(3-(2-oxopropyl)-1,2,4-thiadiazol-5-yl)furan-2-carboxamide] |
| 17900 nM | Cc1oc(C(=O)Nc2nc(CC(C)N3CCCC3)ns2)cc1-c1cccc(C(F)(F)F)c1 (stereo not shown) [Compound F-6] |
| 14000 nM | Cc1oc(C(=O)Nc2nc(CC(C)N3CCCCC3)ns2)cc1-c1cccc(C#N)c1 (stereo not shown) [Compound F-7, 4-(3-Cyanophenyl)-5-methyl-N-(3-(2-(piperidin-1-yl)propyl)-1,2,4-thiadiazol-5-yl)furan-2-carboxamide] |
| 17600 nM | COc1cccc(-c2cc(C(=O)Nc3nc(CC(C)N4CCOCC4)ns3)oc2C)c1 (stereo not shown) [Compound F-8, 4-(3-Methoxyphenyl)-5-methyl-N-(3-(2-morpholinopropyl)-1,2,4-thiadiazol-5-yl)furan-2-carboxamide] |
| 23500 nM | Cc1oc(C(=O)Nc2nc(CC(C)N3CCOCC3)ns2)cc1-c1cccc(OC(F)(F)F)c1 (stereo not shown) [Compound F-9, 5-Methyl-N-(3-(2-morpholinopropyl)-1,2,4-thiadiazol-5-yl)-4-(3-(trifluoromethoxy)phenyl)furan-2-carboxamide] |

Further lines, the compound ahead of its results:

| Structure (SMILES) | IC50 |
| --- | --- |
| CC(=O)Cc1nsc(NC(=O)c2cc(-c3cccc(C#N)c3)oc2C(F)(F)F)n1 [Compound E-2, 5-(3-Cyanophenyl)-N-(3-(2-oxopropyl)-1,2,4-thiadiazol-5-yl)-2-(trifluoromethyl)furan-3-carboxamide] | 2230 nM |
| COc1cccc(-c2cc(C(=O)Nc3nc(CC(C)=O)ns3)c(C(F)(F)F)o2)c1 [Compound E-3, 5-(3-Methoxyphenyl)-N-(3-(2-oxopropyl)-1,2,4-thiadiazol-5-yl)-2-(trifluoromethyl)furan-3-carboxamide] | 570 nM |
| CC(=O)Cc1nsc(NC(=O)c2cc(-c3cccc(OC(F)(F)F)c3)oc2C(F)(F)F)n1 [Compound E-4, N-(3-(2-oxopropyl)-1,2,4-thiadiazol-5-yl)-5-(3-(trifluoromethoxy)phenyl)-2-(trifluoro-methyl)furan-3-carboxamide] | 550 nM |
| CC(=O)Cc1nsc(NC(=O)c2cc(-c3cccc(OC(F)F)c3)oc2C(F)(F)F)n1 [Compound E-5, 5-(3-(Difluoromethoxy)phenyl)-N-(3-(2-oxopropyl)-1,2,4-thiadiazol-5-yl)-2-(trifluoro-methyl)furan-3-carboxamide] | 1480 nM |
| CC(Cc1nsc(NC(=O)c2cc(-c3cccc(C(F)(F)F)c3)oc2C(F)(F)F)n1)N1CCCC1 (stereo not shown) [Compound E-6, N-(3-(2-(pyrrolidin-1-yl)propyl)-1,2,4-thiadiazol-5-yl)-2-(trifluoromethyl)-5-(3-(trifluoromethyl)phenyl) furan-3-carboxamide] | 3380 nM |
| CC(Cc1nsc(NC(=O)c2cc(-c3cccc(C#N)c3)oc2C(F)(F)F)n1)N1CCOCC1 (stereo not shown) [Compound E-8, 5-(3-Cyanophenyl)-N-(3-(2-morpholinopropyl)-1,2,4-thiadiazol-5-yl)-2-(trifluoromethyl)furan-3-carboxamide] | 7540 nM |
| COc1cccc(-c2cc(C(=O)Nc3nc(CC(C)N4CCCCC4)ns3)c(C(F)(F)F)o2)c1 (stereo not shown) [Compound E-9, 5-(3-Methoxyphenyl)-N-(3-(2-(piperidin-1-yl)propyl)-1,2,4-thiadiazol-5-yl)-2-(trifluoro-methyl)furan-3-carboxamide] | 5290 nM |
| CC(Cc1nsc(NC(=O)c2cc(-c3cccc(OC(F)(F)F)c3)oc2C(F)(F)F)n1)N1CCOCC1 (stereo not shown) [Compound E-10, N-(3-(2-morpholinopropyl)-1,2,4-thiadiazol-5-yl)-5-(3-(trifluoromethoxy)phenyl)-2-(trifluoromethyl)furan-3-carboxamide] | 990 nM |
| CC(Cc1nsc(NC(=O)c2cc(-c3cccc(OC(F)F)c3)oc2C(F)(F)F)n1)N1CCN(C)CC1 (stereo not shown) [Compound E-11, 5-(3-(Difluoromethoxy)phenyl)-N-(3-(2-(4-methylpiperazin-1-yl)propyl)-1,2,4-thiadiazol-5-yl)-2-(trifluoromethyl)furan-3-carboxamide] | 970 nM |
| CC(O)Cc1nsc(NC(=O)c2cc(-c3cccc(C(F)(F)F)c3)oc2C(F)(F)F)n1 (stereo not shown) [Compound E-12, N-(3-(2-hydroxypropyl)-1,2,4-thiadiazol-5-yl)-2-(trifluoromethyl)-5-(3-(trifluoromethyl)phenyl)furan-3-carboxamide] | 1570 nM |
| CC(O)(Cc1nsc(NC(=O)c2cc(-c3cccc(C(F)(F)F)c3)oc2C(F)(F)F)n1)C(F)(F)F (stereo not shown) [Compound E-17, N-(3-(3,3,3-trifluoro-2-hydroxy-2-methylpropyl)-1,2,4-thiadiazol-5-yl)-2-(trifluoromethyl)-5-(3-(trifluoromethyl)phenyl)furan-3-carboxamide] | 790 nM |
| CC(Cc1nsc(NC(=O)c2cc(-c3cccc(C(F)(F)F)c3)oc2C(F)(F)F)n1)=C(F)F [Compound E-22, N-(3-(3,3-difluoro-2-methylallyl)-1,2,4-thiadiazol-5-yl)-2-(trifluoromethyl)-5-(3-(trifluoromethyl)phenyl) furan-3-carboxamide] | 1460 nM |
| CC(F)(F)Cc1nsc(NC(=O)c2cc(-c3cccc(C(F)(F)F)c3)oc2C(F)(F)F)n1 [Compound E-27, N-(3-(2,2-difluoropropyl)-1,2,4-thiadiazol-5-yl)-2-(trifluoromethyl)-5-(3-(trifluoromethyl)phenyl) fura n-3-carboxamide] | 950 nM |
| O=C(Nc1nc(CCl)ns1)c1cc(-c2cccc(C(F)(F)F)c2)oc1C(F)(F)F [Compound E-32, N-(3-(chloromethyl)-1,2,4-thiadiazol-5-yl)-2-(trifluoromethyl)-5-(3-(trifluoromethyl)phenyl)furan-3-carboxamide] | 1320 nM |
| CN1CCN(Cc2nsc(NC(=O)c3cc(-c4cccc(C#N)c4)oc3C(F)(F)F)n2)CC1 [Compound E-38, 5-(3-Cyanophenyl)-N-(3-((4-methylpiperazin-1-yl)methyl)-1,2,4-thiadiazol-5-yl)-2-(trifluoromethyl)furan-3-carboxamide] | 1450 nM |
| COc1cccc(-c2cc(C(=O)Nc3nc(CN4CCOCC4)ns3)c(C(F)(F)F)o2)c1 [Compound E-39, 5-(3-Methoxyphenyl)-N-(3-(morpholinomethyl)-1,2,4-thiadiazol-5-yl)-2-(trifluoromethyl)furan-3-carboxamide] | 2190 nM |
| O=C(Nc1nc(CN2CCCC2)ns1)c1cc(-c2cccc(OC(F)(F)F)c2)oc1C(F)(F)F [Compound E-40, N-(3-(pyrrolidin-1-ylmethyl)-1,2,4-thiadiazol-5-yl)-5-(3-(trifluoromethoxy)phenyl)-2-(trifluoromethyl)furan-3-carboxamide] | 2920 nM |
| O=C(Nc1nc(CN2CCCCC2)ns1)c1cc(-c2cccc(OC(F)F)c2)oc1C(F)(F)F [Compound E-41, 5-(3-(Difluoromethoxy)phenyl)-N-(3-(piperidin-1-ylmethyl)-1,2,4-thiadiazol-5-yl)-2-(trifluoromethyl)furan-3-carboxamide] | 890 nM |
| Cc1oc(C(=O)Nc2nc(CC(C)N3CCN(C)CC3)ns2)cc1-c1cccc(OC(F)F)c1 (stereo not shown) [Compound F-10, 4-(3-(Difluoromethoxy)phenyl)-5-methyl-N-(3-(2-(4-methylpiperazin-1-yl)propyl)-1,2,4-thiadiazol-5-yl)furan-2-carboxamide] | 27100 nM |
